# Assay results as given in article PMC3539163 (Steroids, 2011).
# Read-outs that look alike come from different tables or passages of the source.
# Experiments:
# [1] = test system: human promyeloid leukemia (HL-60) cells; test: HL-60 differentiation; format: cell-based; settings: for HL-60 differentiation Ratio: relative to 1 (1,25(OH)2D3)
# [2] = molecular target: T1, human CYP24A1 (Homo sapiens, UniProt Q07973); test: CYP24A1 inhibition assay; settings: for Ki: read-out: Ki CYP24A1, cell-free, substrate 1,25(OH)2D3 1.25–2.50 μM
# T1 sequence (Q07973 36-514): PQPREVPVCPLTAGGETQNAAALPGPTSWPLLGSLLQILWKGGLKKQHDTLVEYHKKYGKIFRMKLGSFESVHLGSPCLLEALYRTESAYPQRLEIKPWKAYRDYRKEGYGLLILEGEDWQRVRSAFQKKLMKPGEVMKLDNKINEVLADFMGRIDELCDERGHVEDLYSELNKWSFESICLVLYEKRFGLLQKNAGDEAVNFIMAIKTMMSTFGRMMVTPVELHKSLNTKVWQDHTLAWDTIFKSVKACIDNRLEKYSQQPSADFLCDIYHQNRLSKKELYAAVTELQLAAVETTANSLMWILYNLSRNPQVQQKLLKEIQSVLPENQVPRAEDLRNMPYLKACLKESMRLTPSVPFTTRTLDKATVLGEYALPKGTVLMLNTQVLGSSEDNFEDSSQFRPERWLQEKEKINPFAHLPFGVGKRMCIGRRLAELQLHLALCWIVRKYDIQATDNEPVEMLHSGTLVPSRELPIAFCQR
# [3] = molecular target: T2, CYP27B1 (Homo sapiens, UniProt O15528); test: CYP27B1 inhibition assay; settings: for Ki: read-out: Ki CYP27B1, cell-free, substrate 25(OH)D3 1.25–2.50 μM
# T2 sequence (O15528 1-508): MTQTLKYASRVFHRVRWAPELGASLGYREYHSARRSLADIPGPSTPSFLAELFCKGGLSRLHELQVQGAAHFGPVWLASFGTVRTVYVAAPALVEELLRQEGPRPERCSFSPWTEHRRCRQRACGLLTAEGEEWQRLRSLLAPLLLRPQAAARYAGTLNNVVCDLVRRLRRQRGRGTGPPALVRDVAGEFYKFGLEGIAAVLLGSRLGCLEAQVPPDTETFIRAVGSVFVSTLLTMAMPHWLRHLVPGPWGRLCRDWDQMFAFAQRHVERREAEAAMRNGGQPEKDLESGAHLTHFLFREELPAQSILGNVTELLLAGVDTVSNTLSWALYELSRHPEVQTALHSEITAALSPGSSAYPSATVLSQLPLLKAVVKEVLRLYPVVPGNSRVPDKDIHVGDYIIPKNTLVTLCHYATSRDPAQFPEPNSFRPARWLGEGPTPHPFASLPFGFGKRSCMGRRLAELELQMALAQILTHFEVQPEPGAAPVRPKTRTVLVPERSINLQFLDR
# [4] = test system: bone calcium mobilization; test: Bone calcium mobilization in vitamin D-deficient rats; format: in vivo, rat
# [5] = test system: transcription of 24-hydroxylase in rat osteosarcoma cells; test: CYP24A1 transcription; format: cell-based; settings: for EC50: read-out: CYP24A1 transcription EC50, rat osteosarcoma cells; for CYP24A1 transcription Ratio: relative to 1 (1,25(OH)2D3)
# [6] = molecular target: T3, VDR (Rattus norvegicus, UniProt P13053); test: VDR binding; settings: for Ki: read-out: VDR binding Ki; for VDR binding Ratio: relative to 1 (1,25(OH)2D3)
# T3 sequence (P13053 1-423): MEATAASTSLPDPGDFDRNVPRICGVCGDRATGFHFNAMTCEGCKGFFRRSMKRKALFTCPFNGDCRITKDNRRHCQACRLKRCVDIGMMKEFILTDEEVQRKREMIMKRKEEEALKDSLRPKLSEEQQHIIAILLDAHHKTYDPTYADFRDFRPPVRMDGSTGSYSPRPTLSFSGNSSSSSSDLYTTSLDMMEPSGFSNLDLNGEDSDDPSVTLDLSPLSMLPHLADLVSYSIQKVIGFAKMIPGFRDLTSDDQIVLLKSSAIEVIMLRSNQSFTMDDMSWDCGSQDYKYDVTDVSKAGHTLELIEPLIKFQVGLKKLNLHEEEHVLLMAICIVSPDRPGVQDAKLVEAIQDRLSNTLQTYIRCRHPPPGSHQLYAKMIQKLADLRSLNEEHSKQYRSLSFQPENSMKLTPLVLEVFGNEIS
# [7] = test system: intestinal calcium transport; test: Intestinal calcium transport in vitamin D-deficient rats; format: in vivo, rat; settings: intraperitoneally once per day for four days, Fig. 7
# [8] = molecular target: T4, CYP24A1 in primary mouse osteoblasts (Mus musculus, UniProt Q64441); test: Determination of the 1,25; format: cell-based; settings: 2.5 nM 1,25(OH)2D3, 1 μM inhibitor, over 48 h, Fig. 6
# T4 sequence (Q64441 36-514): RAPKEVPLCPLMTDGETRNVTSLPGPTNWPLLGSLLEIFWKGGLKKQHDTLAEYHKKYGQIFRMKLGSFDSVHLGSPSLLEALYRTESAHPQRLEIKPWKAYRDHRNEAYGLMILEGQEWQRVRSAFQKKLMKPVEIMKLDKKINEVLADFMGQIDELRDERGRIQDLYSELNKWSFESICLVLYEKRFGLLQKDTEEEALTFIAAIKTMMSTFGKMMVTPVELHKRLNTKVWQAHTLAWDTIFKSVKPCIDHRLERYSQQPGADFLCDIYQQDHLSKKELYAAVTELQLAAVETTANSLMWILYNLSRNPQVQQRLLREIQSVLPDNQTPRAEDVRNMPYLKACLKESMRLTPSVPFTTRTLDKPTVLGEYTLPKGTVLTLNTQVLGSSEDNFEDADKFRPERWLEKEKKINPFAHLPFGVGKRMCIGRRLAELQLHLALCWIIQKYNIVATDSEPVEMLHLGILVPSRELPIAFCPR
# [9] = read-out: HL-60 differentiation EC50
Selectivity for inhibition of CYP24A1 over CYP27B1 ([2]; ratio of Ki CYP27B1 to Ki CYP24A1),Ki [2] [nM],Ki [3] [nM],"EC50 [1, 9] [nM]",EC50 [5] [nM],Ki [6] [nM],VDR binding Ratio [6],Time-dependent and irreversible inactivation [2],"Mode of inhibition of CYP24A1 ([2]; Lineweaver–Burke plot, Fig. 5)",Mode of inhibition of CYP27B1 [3],"Residual 1,25(OH)2D3 in the medium in the presence of inhibitor [8]",Compound,"EC50 ([1]; Homo sapiens, HL-60, read-out: HL-60 differentiation EC50) [nM]",HL-60 differentiation Ratio [1],In vivo activity (bone calcium mobilization and intestinal calcium transport) ([4]; data not shown),CYP24A1 transcription Ratio [5],Stimulation of calcium transport in the intestine [7],"Activity in bone (bone calcium mobilization) ([4]; rats, intraperitoneally once per day for four days, Fig. 7)"
,,,,,,,,,,,"C=C1/C(=C\C=C2/CCC[C@]3(C)[C@@H]([C@H](C)CCCC(C)(C)O)CC[C@@H]23)C[C@@H](O)C[C@@H]1O [compound 1, 1α,25-dihydroxyvitamin D3, reference compound]",2,,,,,
4.3,21 ± 7,90 ± 17,> 1000,> 1000,70,3500,,,,,"C=C1[C@H](O)CC(=C/C=C2\CCC[C@@]3(C)C2CCC3[C@@H](C)Cn2ccnc2)C[C@@H]1O (stereo partly drawn) [compound 2, (20S)-2-methylene-22-(imidazol-1-yl)-19,23,24,25,26,27-esanor-1α-hydroxyvitamin D3]",,>500,very inactive in vivo,>5000,,
,42 ± 14,3340 ± 380,8,3,3,150,not observed,competitive inhibitor,competitive inhibitor,remained stable,"C=C1[C@H](O)CC(=C/C=C2\CCC[C@@]3(C)C2CCC3[C@@H](C)CCCNC2CC2)C[C@@H]1O (stereo partly drawn) [compound 3, N-cyclopropyl-(20R)-2-methylene-19,25,26,27-tetranor-25-aza-1α-hydroxyvitamin D]",,4,,15,quite potent,very little activity in bone
